Experimental data from US6352980B1, “Estrenes for inducting hypothalamic effects” (Pherin Pharmaceuticals, Inc., priority 1991, dated 2002).
Entries after “also recorded” stand apart in the source; their conditions may differ.

How the values were obtained:
VNO [1] = assay: Comparison of change in receptor potential induced by two Estrene steroids (Example 55); format: in vivo, human; details: 60 picograms; a subject; FIG. 5
Procedure: 60 picograms of each steroid and of a propylene glycol control were administered to a subject as described in Example 21.

VNO [2] = assay: Electro-vomeronasogram (EVG) (Example 57); format: in vivo, human; details: male subjects (ages 20 to 38); 100 fmoles; 1 second pulses; FIG. 6A
Procedure: The following electrophysiological studies were performed in 60 clinically normal human volunteers of both sexes (30 male and 30 female) whose ages ranged from 20 to 45 years. No anesthetics were used, and female subjects were excluded if pregnant.
The stimulation and recording system consists of a “multifunctional miniprobe” described elsewhere (Monti-Bloch, L. and Grosser, B. l. (1991) “Effect of putative pheromones on the electrical activity of the human vomeronasal organ and olfactory epithelium,” J. Steroid Biochem. Molec. Biol. 39:573-582.). The recording electrode is a 0.3 mm silver ball attached to a small (0.1 mm) silver wire insulated with Teflon© the surface of the electrode is first treated to produce a silver chloride interface, and is then covered with gelatin It is positioned within a small caliber Teflon© catheter (dia=5 mm) such that the tip of the electrode protrudes approximately 2 mm. The Teflon© catheter is 10 cm in length and constitutes the terminal extension for a multichannel delivery system which delivers a continuous air stream carrying discreet pulses of chemosensory stimuli. The air stream first passes into a small chamber and is bubbled through a solution containing either a vomeropherin or an olfactant in a diluent or the diluent alone. A solenoid is used to rapidly redirect the air stream from the chamber to a route which bypasses the chamber. This creates a discreet pulse of stimulant in the air stream. A second, outer Teflon® tube with a diameter of 2 mm surrounds the catheter-electrode assemblage, and its central end is connected to an aspirator that provides continuous suction of 3 ml/s. This concentric arrangement of the outer suction tube allows the emitted chemosensory stimuli to be localized to an area we call a “minifield” (approx. dia=1 mm), and it avoids diffusion of substances either to the area outside the intended stimulation site or into the respiratory system. The entire stimulating and recording assemblage may be positioned either on the neurosensory epithelium within the VNO, or on the surface of the olfactory or respiratory epithelium.
Electro-vomeronasogram (EVG): Recordings are carried out in a quiet room with the subject supine; the multi-functional miniprobe is initially stabilized within the nasal cavity using a nasal retractor placed in the vestibule. Reference and ground electrodes consist of silver discs (8 mm), both of which are positioned on the glabella.
The entrance to the VNO, or vomeronasal pit, is identified by first dilating the nasal aperture and vestibule. A 6× magnifying binocular loupe with halogen illumination is then used to introduce the tip of the Teflon® catheter and recording electrode assemblage into the VNO opening where it is stabilized at an approximate depth of 1 mm within the vomeronasal passage. Optimal placement of the recording electrode is signaled after testing for an adequate depolarization in response to a test substance.
Electrical signals from the recording electrode are fed to a DC amplifier after which they are digitized, computer monitored, and stored. The peak-to-peak amplitude of the signals is measured, and the area under the depolarization wave is integrated, while continuously monitoring the signal both on the computer screen and on a digital oscilloscope. Artifacts produced by respiratory movements are deleted by training the subjects to practice mouth breathing with velopharyngeal closure.
Chemosensory Stimulants: Olfactory test substances are cineole, and 1-carvone; vomeropherins are A, B, C, E and F. (Vomeropherins were supplied by Pherin Corporation, Menlo Park, Calif.), Samples of vomeropherins In. concentration of 25-800 fmoles are delivered in the continuous air stream for durations from 300 milliseconds to 1 second. Usually, intervals of 3 to 5 minutes separated each series of short test pulses. […]

VNO [3] = assay: Skin temperature (ST) on vomeropherin stimulation of the VNO; format: in vivo, human; details: 30 male subjects; p<0.01; FIG. 6G
Procedure: (§1) Cortical evoked activity was induced by VNO stimulation with vomeropherins, and olfactory stimulation with odorants delivered in 300 ms air pulses. It was recorded using standard electroencephalographic (EEG) electrodes placed at positions Cz-A1 and Tz-A1 of the international […] system; the ground electrode was placed on the mastoid process. Electrodermal activity (EDA) was recorded using standard 8 mm silver electrodes in contact with palmar skin of the medial and ring fingers, respeCtively, through a conductive gel interface. Skin temperature (ST) was recorded by a small (1.0 mm) thermistor probe placed in the right ear lobe. Peripheral arterial pulse (PAP) was monitored with a plethysmograph attached to the tip of the index finger. Respiratory frequency (RF) was measured with an adjustable strain gauge placed around the lower thorax. All electrical signals were DC amplified, digitized (MP-100, Biopac Systems) and continuously monitored utilizing a computer.
(§2) Statistical Analysis: EVGs or EOGS, peak-to-peak changes and frequency changes of other parameters were measured and statistically analyzed. The significance of the results was determined by either using paired t-tests or analysis of variance (ANOVA).
In female subjects vomeropherins produced changes in EDA and ST with a greater standard deviation than in males.

VNO [4] = assay: Cortical activity (EEG) on VNO stimulation with vomeropherins; format: in vivo, human; details: males; 200 fmoles; air pulses 300 ms to 1 sec; FIG. 6E
Procedure: as §1, §2
[…] […] Synchronization of the EEG was sustained for 1.5 to 2.7 minutes after application of a single pulse of active substance.

VNO [5] = details: 2% lidocaine applied to the respiratory epithelium of the nasal septum; cited from earlier work
[6] = system: human vomeronasal organ (VNO); assay: Local electrical potential of the VNO on localized gaseous stimulation (Example 52); format: in vivo; details: for VNO response, males versus females (sexual dimorphism): FIG. 2B; for VNO response: male subjects, about 25 pg to the nasal cavity, response measured in mV×s, FIG. 2A
Procedure: (§3) A non-invasive method has been employed to record local electrical potentials from the human vomeronasal organ (VNO) and from the olfactory epithelium (OE). Localized gaseous stimulation was applied to both nasal structures at different instances using specially designed catheter/electrodes connected to a multichannel drug delivery system.
(§4) The study was performed on ten clinically normal (screened) volunteers—2 males and 8 females, ranging in age from 18 to 85 years. The studies were conducted without general or local anesthetics.
(§5) The catheter/electrodes were designed to deliver a localized stimulus and simultaneously record the response. In the case of VNO recording, the right nasal fosa of the subject was explored using a nasoscope (nasal specula) and the vomeronasal opening was localized close to the intersection of the anterior edge of the vomer and the nasal floor. The catheter/electrode was gently driven through the VNO-opening and the electrode tip placed in the organ's lumen at 1 to 3 mm from the opening. The nasoscope was then removed. In the case of the OE, recording the procedure was similar except the positioning of the catheter/electrode was gently placed deep in the lateral part of the medial nasal duct, reaching the olfactory mucosa.
Localized gaseous stimulation was done through the catheter/electrode. A constant stream of clean, nonodorous, humidified air at room temperature was continuously passed through a channel of the stimulating system. The stimulating ligand substances were diluted in propylene glycol, mixed with the humidified air, and puffed for from 1 to 2 seconds through the catheter/electrode. It is estimated that this administration provides about 25 pg of steroid-ligand to the nasal cavity.
(§6) The response is measured in millivolt-seconds (mV×s).

[7] = system: olfactory epithelium (OE); assay: Local electrical potential of the olfactory epithelium on localized gaseous stimulation (Example 52); format: in vivo, human; details: both males and females; compared to clove; FIG. 2C
Procedure: as §3, §4, §5
Localized gaseous stimulation was done through the catheter/electrode. […]
as §6

VNO [8] = assay: Electrodermal activity (EDA) on vomeropherin stimulation of the VNO; format: in vivo, human; details: male subjects, n=30; p<0.01; FIG. 6C
Procedure: as §1, §2
Reflex Effects of Vomeropherins: Studies were conducted to determine the central nervous system (CNS) reflex responses to vomeropherin stimulation of the VNO. The sexually dimorphic local responses induced by vomeropherins (FIGS. 6A and B) were mirrored in the autonomic response of male & female subjects. […] In female subjects.

Compound	change in receptor potential (VNO [1])	EVG average response (mean) (VNO [2])	skin temperature (ST) (VNO [3])	alpha cortical activity (VNO [4])	effect of local anesthetic on the EVG (VNO [5])	VNO response, males versus females (sexual dimorphism) [6]	VNO response [6]	OE response [7]	skin resistance (electrodermal activity, EDA) (VNO [8])
COc1ccc2c(c1)CC[C@@H]1[C@@H]2CC[C@]2(C)C=CC[C@@H]12 [D, 3-Methoxy-Estra-1,3,5(10)16-tetraene]	greater change in receptor potential than did 1,3,5(10),16-Estratetraen-3-yl acetate	15.1 mV	significant temperature decrease	significantly increased alpha cortical activity; also recorded: strongest effect					
CCN(CC)CC(=O)Nc1c(C)cccc1C [lidocaine]					neither blocks nor diminishes the EVG				
C[C@@]12C=CC[C@H]1[C@@H]1CCc3cc(O)ccc3[C@H]1CC2 [C, 1,3,5(10),16-Estratetraen-3-ol]		6.4 mV	significant increase in skin temperature	significantly increased alpha cortical activity		approximately four times as strong in males as it is in females	significantly stronger VNO response in males than do the other compounds tested	low compared to a strong odorant such as clove	decreased skin resistance
C[C@]12CC[C@@H]3c4ccc(O)cc4CC[C@H]3[C@@H]1C[C@@H](O)[C@@H]2O [1,3,5(10)-Estratrien-3,16α,17β-triol, reference compound]						approximately four times as strong in males as it is in females	strong VNO response	low compared to a strong odorant such as clove	
